Data taken from article PMC7932537, “Quantitative profiling of protease specificity” (PLoS Computational Biology, 2021).

How the values were obtained:
MMP-9 [1] = assay: Substrate phage display with NGS: relative probability (RP) of P3-P1' tetramer clusters; type: biochemical, human
MMP-2 [2] = target: T1, MMP-2 (Homo sapiens, UniProt P08253); assay: K(obs) of individual phage substrates (set of 1369); type: biochemical; conditions: MMP2; individual phage substrate from the set of 1369 peptides; hyphen in the sequence marks the cleavage position
T1 sequence (P08253 110-660): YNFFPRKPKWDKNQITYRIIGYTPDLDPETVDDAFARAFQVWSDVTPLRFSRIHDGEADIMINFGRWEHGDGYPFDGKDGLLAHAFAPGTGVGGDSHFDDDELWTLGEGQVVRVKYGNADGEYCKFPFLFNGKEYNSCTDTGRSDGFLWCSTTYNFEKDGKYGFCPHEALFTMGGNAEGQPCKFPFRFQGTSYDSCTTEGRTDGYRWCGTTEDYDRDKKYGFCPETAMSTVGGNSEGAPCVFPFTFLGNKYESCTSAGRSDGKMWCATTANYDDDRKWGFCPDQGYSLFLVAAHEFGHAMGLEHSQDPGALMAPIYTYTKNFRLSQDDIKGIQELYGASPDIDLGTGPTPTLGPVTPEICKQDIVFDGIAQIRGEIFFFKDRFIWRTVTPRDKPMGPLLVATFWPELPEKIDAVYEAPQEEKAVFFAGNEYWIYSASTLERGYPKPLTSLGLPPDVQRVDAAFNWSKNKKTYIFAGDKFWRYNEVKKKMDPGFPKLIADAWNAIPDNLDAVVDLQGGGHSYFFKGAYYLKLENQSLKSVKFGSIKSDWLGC

MMP-9 [3] = target: MMP-9 (Homo sapiens, UniProt P14780); assay: as above; type: biochemical; conditions: MMP9; individual phage substrate of the set of 1369 peptides; dash in sequence marks cleavage position
Sequence of MMP-9 (Homo sapiens, UniProt P14780) (P14780 94-707): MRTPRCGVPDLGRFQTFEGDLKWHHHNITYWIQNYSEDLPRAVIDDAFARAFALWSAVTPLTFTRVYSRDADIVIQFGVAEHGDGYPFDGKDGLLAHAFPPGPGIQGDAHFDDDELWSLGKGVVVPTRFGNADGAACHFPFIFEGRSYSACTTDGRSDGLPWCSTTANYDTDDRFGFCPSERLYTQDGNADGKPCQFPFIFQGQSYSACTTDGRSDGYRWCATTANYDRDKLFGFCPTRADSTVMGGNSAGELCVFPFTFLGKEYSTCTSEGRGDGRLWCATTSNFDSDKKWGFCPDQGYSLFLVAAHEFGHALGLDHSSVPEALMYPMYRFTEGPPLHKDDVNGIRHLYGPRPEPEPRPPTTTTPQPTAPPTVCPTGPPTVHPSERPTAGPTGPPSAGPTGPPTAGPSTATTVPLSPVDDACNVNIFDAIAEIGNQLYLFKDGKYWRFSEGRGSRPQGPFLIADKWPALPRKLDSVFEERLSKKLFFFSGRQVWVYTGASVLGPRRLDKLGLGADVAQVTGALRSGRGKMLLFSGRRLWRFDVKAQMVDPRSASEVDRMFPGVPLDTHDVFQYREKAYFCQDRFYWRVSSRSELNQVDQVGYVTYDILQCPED

MMP-2 [4] = assay: Substrate phage display with NGS: relative probability (RP) of P3-P1' tetramer clusters; type: biochemical, human; conditions: for avg_RP: MMP2 - no binning; for relative probability (RP) of matching tetramer: P3-P1' tetramer matching the MS detected MMP2 cleavage sequence, RP_above_4.5
[5] = MMP9, RP of the substrate's P3-P1' tetramer, substrate phage display with NGS
[6] = average relative probability of the P3-P1' tetramer, redundant tetramers have been averaged out
[7] = normalized RP of matching tetramer, unique part of MMP2 selectome
[8] = RP according to MMP2, P3-P1' tetramer of unique physiologic MMP2 substrates from MEROPS

| Substance | relative probability (RP) (MMP-9 [1]; [5]) | Kobs (MMP-2 [2]) [M⁻¹ s⁻¹] | Kobs (MMP-9 [3]) [M⁻¹ s⁻¹] | further results |
| --- | --- | --- | --- | --- |
| AHPSA-LTASG | 47.6113 | 12792.1 | 12792.1 |  |
| AMPKH-LTASG | 46.5072 | 12792.1 | 12792.1 |  |
| ATLAA-LTASG | 6.32 | 12792.1 | 0 |  |
| ATLAA-WTASG | 1.553 | 10866.7 | 113.394 |  |
| CAPTA-LTASG | 40.9775 | 12792.1 | 10866.7 |  |
| DSPLS-LTASG | 48.1735 | 12792.1 | 12792.1 |  |
| EAIGR-LTASG | 4.541 | 12792.1 | 517.582 |  |
| EGPMR-LTASG | 42.6597 | 12792.1 | 12792.1 |  |
| EHPGL-LTASG | 19.6268 | 2996.69 | 113.394 |  |
| ERPFF-LTASG | 36.9909 | 12792.1 | 12792.1 |  |
| ESIRG-LTASG | 41.2198 | 12792.1 | 6688.74 |  |
| ESIRH-LTASG | 35.7683 | 12792.1 | 5667.28 |  |
| EWPSR-MTASG | 33.7336 | 6396.07 | 3964.21 |  |
| FAPAE-VTASG | 5.593 | 12792.1 | 3438.54 |  |
| FDVWM-LTASG | 17.1619 | 912.511 | 1283.43 |  |
| FEPQR-MTASG | 31.7168 | 690.17 | 7815.03 |  |
| FHPSR-FTASG | 21.0555 | 12792.1 | 2916.17 |  |
| FIPFP-FTASG | 42.1583 | 12792.1 | 12792.1 |  |
| FIPMW-STASG | 27.7553 | 451.441 | 6131.32 |  |
| FKAVA-LTASG | 32.1946 | 12792.1 | 12792.1 |  |
| FLPRM-LTASG | 42.2884 | 12792.1 | 12792.1 |  |

| Substance | relative probability (RP) (MMP-9 [1]; [5]) | Kobs (MMP-2 [2]) [M⁻¹ s⁻¹] | Kobs (MMP-9 [3]) [M⁻¹ s⁻¹] | further results |
| --- | --- | --- | --- | --- |
| FQIGS-LTASG | 7.1912 | 12792.1 | 1465.65 |  |
| FVVRL-LTASG | 11.0035 | 2615.58 | 2615.58 |  |
| FYFSN-LTASG | 0.7913 | 12792.1 | 0 |  |
| GAPAK-LRTAS | 39.5582 | 12792.1 | 10866.7 |  |
| GAPAR-FTTAS | 21.7112 | 12792.1 | 1071.29 |  |
| GDPRW-LSTAS | 47.776 | 6688.74 | 9740.44 |  |
| GEPLF-LRTAS | 38.6603 | 12792.1 | 12792.1 |  |
| GEPSA-YRTAS | 46.6524 | 12792.1 | 12792.1 |  |
| GFPRA-FRTAS | 44.1248 | 12792.1 | 7815.03 |  |
| GFTRW-LTASG | 25.6075 | 4763.33 | 6396.07 |  |
| GFVFE-LRTAS | 20.3412 | 5889.62 | 9740.44 |  |
| GGIAA-MRTAS | 10.5791 | 1071.29 | 386.839 |  |
| GGPAP-MWTAS | 45.1106 | 2476.66 | 5667.28 |  |
| GGPST-LTASG | 36.3405 | 9740.44 | 4613.14 |  |
| GGSGN-LTVKT | 1.504 | 12792.1 | 0 |  |
| GHIAW-FTASG | 7.9655 | 12792.1 | 1513.13 |  |
| GHPSP-FTASG | 37.3217 | 12792.1 | 0 |  |
| GLARA-LKTAS | 38.5396 | 12792.1 | 4335.13 |  |
| GLPAA-LTTAS | 47.6262 | 12792.1 | 12792.1 |  |
| GLVWN-LWTAS | 38.922 | 1660.66 | 8321.48 |  |
| GMLRA-MHTAS | 36.706 | 6396.07 | 3253.29 |  |

| Substance | relative probability (RP) (MMP-9 [1]; [5]) | Kobs (MMP-2 [2]) [M⁻¹ s⁻¹] | Kobs (MMP-9 [3]) [M⁻¹ s⁻¹] | further results |
| --- | --- | --- | --- | --- |
| GMPGR-LSTAS | 29.3451 | 7015.91 | 517.582 |  |
| GMPLG-LRTAS | 48.9856 | 10866.7 | 12792.1 |  |
| GMPLL-LRTAS | 32.5638 | 8321.48 | 12792.1 |  |
| GMPRA-YRTAS | 46.2238 | 12792.1 | 12792.1 |  |
| GMPRS-YITAS | 44.546 | 12792.1 | 12792.1 |  |
| GMVLG-LHTAS | 34.6877 | 12792.1 | 12792.1 |  |
| GMVRG-VTASG | 13.8249 | 7386.83 | 2761.81 |  |
| GNPAQ-MRTAS | 38.7952 | 12792.1 | 7015.91 |  |
| GNPLG-IRTAS | 48.5606 | 12792.1 | 12792.1 |  |
| GQPRA-IRTAS | 47.8426 | 12792.1 | 12792.1 |  |
| GRATA-LYTAS | 15.5991 | 4082.43 | 1283.43 |  |
| GRLLA-MHTAS | 12.6533 | 2687.73 | 1112.44 |  |
| GRPAG-VKTAS | 31.0803 | 12792.1 | 3079.62 |  |
| VSSL |  |  |  | avg_RP (MMP-2 [4]; [6]): 29.0891; relative probability (RP) (acc.to MMP2) (MMP-2 [4]; MMP2, RP of matching P3-P1' tetramer, common set of MMP2-9 selectome, RP above KL threshold): 29.09; relative probability (RP) of matching tetramer (MMP-2 [4]): 29.09; relative probability (RP) (acc.to MMP9) (MMP-9 [1]; MMP9, RP of matching P3-P1' tetramer, common set of MMP2-9 selectome): 17.98 |
| VTPR |  |  |  | relative probability (RP) (acc.to MMP2) (MMP-2 [4]; RP of the P3-P1' tetramer, MMP2 substrate phage display/NGS, tetramers of physiologic MEROPS substrates common to MMP2 and MMP9): 0.18; relative probability (RP) (acc.to MMP9) (MMP-9 [1]; RP of the P3-P1' tetramer, MMP9 substrate phage display/NGS, tetramers of physiologic MEROPS substrates common to MMP2 and MMP9): 0.46 |
| VYHQ |  |  |  | corresponding MMP2 relative probability (RP) (MMP-2 [4]; MMP9 tetramers from unique substrates, RP of same tetramer for MMP2): 13.6887; MMP9 relative probability (RP) (MMP-9 [1]; MMP9 tetramers from unique substrates, unrounded values): 0.1039 |
| WGAL |  |  |  | avg_RP (MMP-2 [4]; average relative probability of the tetramer, redundant tetramers averaged out): 26.3441; relative probability (RP) of matching tetramer (MMP-2 [4]): 26.34; relative probability (RP) (acc.to MMP2) (MMP-2 [4]; RP of matching tetramer, unique part of MMP2 selectome, RP above KL threshold): 26.34; normalized RP - MMP2 (MMP-2 [4]; [7]): 0.7212; relative probability (RP) (acc.to MMP9) (MMP-9 [1]; RP of matching tetramer, unique part of MMP2 selectome): 3.54; normalized RP - MMP9 (MMP-9 [1]; [7]): 0.06758 |
| WPSPFR |  |  |  | relative probability (RP) (MMP-2 [4]; RP of the P3-P1' tetramer cluster contained in the hexamer, 200 nM MMP-2, 2 h, 37°C, two rounds of selection): 30.9274; relative probability (RP) (MMP-9 [1]; MMP9, RP of the P3-P1' tetramer contained in the hexamer substrate (substrate phage display, NGS)): 37.3217 |
| YSNI |  |  |  | avg_RP (MMP-2 [4]; [6]): 14.6847; MMP2 relative probability (RP) (MMP-2 [4]; MMP2 tetramers from unique substrates, unrounded values): 14.6847; Relative probability (RP) rank (MMP-2 [4]; [8]): 3195; relative probability (RP) (MMP-2 [4]; [8]): 14.68; corresponding MMP9 relative probability (RP) (MMP-9 [1]; MMP2 tetramers from unique substrates, RP of same tetramer for MMP9): 0.05486 |
